We go through 8 compounds from ChEMBL document CHEMBL1127874, “Development of tetrazole bioisosteres in angiotensin II antagonists” (Bioorg Med Chem Lett, 1994).

Test [1] deals with T1, Angiotensin II receptor (AT-1) type-1 (Rattus norvegicus, UniProt P29089+P25095).
T1 sequence (P29089 whole entry): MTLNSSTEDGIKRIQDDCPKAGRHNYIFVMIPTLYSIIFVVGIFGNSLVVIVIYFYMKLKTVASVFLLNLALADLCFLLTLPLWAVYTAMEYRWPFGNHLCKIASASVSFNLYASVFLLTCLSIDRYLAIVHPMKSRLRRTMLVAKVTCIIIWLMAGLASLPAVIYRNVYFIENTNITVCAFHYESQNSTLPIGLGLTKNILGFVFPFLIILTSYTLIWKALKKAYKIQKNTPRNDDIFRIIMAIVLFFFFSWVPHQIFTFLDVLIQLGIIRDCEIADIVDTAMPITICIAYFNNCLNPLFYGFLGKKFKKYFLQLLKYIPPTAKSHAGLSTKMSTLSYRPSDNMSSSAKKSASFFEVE
T1 sequence (P25095 whole entry): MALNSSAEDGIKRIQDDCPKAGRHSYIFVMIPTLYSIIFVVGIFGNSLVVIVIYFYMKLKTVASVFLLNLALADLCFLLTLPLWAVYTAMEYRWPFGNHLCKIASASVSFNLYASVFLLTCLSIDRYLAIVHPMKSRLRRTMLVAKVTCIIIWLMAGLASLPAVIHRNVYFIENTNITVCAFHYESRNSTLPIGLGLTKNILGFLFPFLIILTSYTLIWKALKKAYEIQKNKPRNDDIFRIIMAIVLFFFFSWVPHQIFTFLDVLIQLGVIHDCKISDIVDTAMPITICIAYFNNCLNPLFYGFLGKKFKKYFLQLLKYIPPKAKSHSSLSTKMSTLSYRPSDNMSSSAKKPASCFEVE
The experiment in a line: Binding affinity towards Angiotensin II receptor, type 1 in rat liver membrane using [125I]-angiotensin II (0.1 nM). Format: cell membranes.

The species named for a further test is Oryctolagus cuniculus. The experiment in a line: Inhibitory activity against contractile response to angiotensin II (10 nM) of rabbit aortic rings. Format: functional. To be noted: Aorta.

A word on the IC50: it is the midpoint of a concentration-inhibition curve. A lower IC50 goes with greater potency in that assay. Take `CCCCC1=NC2(CCCC2)C(=O)N1Cc1ccc(-c2ccccc2-n2oc(=O)[nH]c2=O)cc1`: the IC50 was 1.4 nM in test [1] and 2.8 nM in the test listed under Oryctolagus cuniculus.
As to `CCCCC1=NC(C)(C2CCCCC2)C(=O)N1Cc1ccc(-c2ccccc2-c2noc(O)n2)cc1` (stereo not drawn), the IC50 amounted to 0.7 nM in test [1] and 0.64 nM in the test listed under Oryctolagus cuniculus.
With `CCCCC1=NC2(CCCC2)C(=O)N1Cc1ccc(-c2ccccc2C2=NOC(=O)C2)cc1`, the IC50 was 25 nM in test [1] and 140 nM in the test filed under Oryctolagus cuniculus.
As for `CCCCC1=NC2(CCCC2)C(=O)N1Cc1ccc(-c2ccccc2-c2noc(O)n2)cc1`, the IC50 came out at 1.7 nM in test [1] and 2.6 nM in the test filed under Oryctolagus cuniculus.
The compound `CCCCC1=NC2(CCCC2)C(=O)N1Cc1ccc(-c2ccccc2-c2nnn[nH]2)cc1` [IRBESARTAN] returned a half-inhibitory concentration (IC50) in test [1] of 1.3 nM.
`CCCCC1=NC2(CCCC2)C(=O)N1Cc1ccc(-c2ccccc2-c2nnc(O)o2)cc1`: the IC50 in test [1] was 60 nM; in the test listed under Oryctolagus cuniculus it was 67 nM.
For `CCCCC1=NC2(CCCC2)C(=O)N1Cc1ccc(-c2ccccc2-c2nc(=O)[nH]o2)cc1`, the IC50 in test [1] was 230 nM.
The compound `CCCCC1=NC(C)(C2CCCCC2)C(=O)N1Cc1ccc(-c2ccccc2-c2n[nH]c(O)n2)cc1` (stereo not drawn) had an IC50 in test [1] of 100 nM. This IC50 is about 2.3-fold lower than that of the compound before.
